Measured values as given in PubChem BioAssay (NCI).
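The compound was tested at five concentrations on cells cultured in 96-well plates, with a 48-hour exposure period. GI50 marks 50% less growth. TGI denotes the concentration required for complete inhibition of growth.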

What was measured:
Assay in all cases: NCI-60 cell line screen, 48 h
[1] = tested on: 786-0 renal
[2] = tested on: A498 renal
[3] = tested on: A549 NSCLC
[4] = tested on: ACHN renal
[5] = tested on: BT-549 breast
[6] = tested on: CAKI-1 renal
[7] = tested on: CCRF-CEM leukemia
[8] = tested on: COLO 205 colon
[9] = tested on: DU-145 prostate
[10] = tested on: EKVX NSCLC
[11] = tested on: HCC-2998 colon
[12] = tested on: HCT-116 colon
[13] = tested on: HCT-15 colon
[14] = tested on: HL-60(TB) leukemia
[15] = tested on: HOP-62 NSCLC
[16] = tested on: HOP-92 NSCLC
[17] = tested on: HS 578T breast
[18] = tested on: HT29 colon
[19] = tested on: IGROV1 ovarian
[20] = tested on: K-562 leukemia
[21] = tested on: KM12 colon
[22] = tested on: LOX IMVI melanoma
[23] = tested on: M14 melanoma
[24] = tested on: MALME-3M melanoma
[25] = tested on: MCF7 breast
[26] = tested on: MDA-MB-231 breast
[27] = tested on: MDA-MB-435
[28] = tested on: MDA-MB-468 breast
[29] = tested on: MOLT-4 leukemia
[30] = tested on: NCI-H226 lung
[31] = tested on: NCI-H23 lung
[32] = tested on: NCI-H460 lung
[33] = tested on: NCI-H522 lung
[34] = tested on: NCI/ADR-RES ovarian
[35] = tested on: OVCAR-3 ovarian
[36] = tested on: OVCAR-4 ovarian
[37] = tested on: OVCAR-5 ovarian
[38] = tested on: OVCAR-8 ovarian
[39] = tested on: PC-3 prostate
[40] = tested on: RPMI-8226 leukemia
[41] = tested on: RXF 393 renal
[42] = tested on: SF-268 CNS
[43] = tested on: SF-295 CNS
[44] = tested on: SF-539 CNS
[45] = tested on: SK-MEL-2 melanoma
[46] = tested on: SK-MEL-28 melanoma
[47] = tested on: SK-MEL-5 melanoma
[48] = tested on: SK-OV-3 ovarian
[49] = tested on: SN12C renal
[50] = tested on: SNB-19 CNS
[51] = tested on: SNB-75 CNS
[52] = tested on: SR leukemia
[53] = tested on: SW-620 colon
[54] = tested on: T-47D breast
[55] = tested on: TK-10 renal
[56] = tested on: U251 CNS
[57] = tested on: UACC-257 melanoma
[58] = tested on: UACC-62 melanoma
[59] = tested on: UO-31 renal

SMILES: CS(=O)(=O)Nc1cncc(-c2ccc3ncnc(NCc4ccccc4)c3c2)c1
- GI50 [1]: 15 µM
- TGI [1]: 37.3 µM
- GI50 [2]: 13.1 µM
- TGI [2]: 36.1 µM
- GI50 [3]: 15.5 µM
- TGI [3]: 31.7 µM
- GI50 [4]: 20.2 µM
- TGI [4]: > 100 µM
- GI50 [5]: 3.63 µM
- TGI [5]: 21.5 µM
- GI50 [6]: 12.8 µM
- TGI [6]: 30.2 µM
- GI50 [7]: 4.58 µM
- TGI [7]: 33.3 µM
- GI50 [8]: 13.2 µM
- TGI [8]: 26.6 µM
- GI50 [9]: 22.2 µM
- TGI [9]: > 100 µM
- GI50 [10]: 12.9 µM
- TGI [10]: 31.4 µM
- GI50 [11]: 11.5 µM
- TGI [11]: 23.8 µM
- GI50 [12]: 13.9 µM
- TGI [12]: 29.1 µM
- GI50 [13]: 23.3 µM
- TGI [13]: 98.3 µM
- GI50 [14]: 10.3 µM
- TGI [14]: 40.9 µM
- GI50 [15]: 12.2 µM
- TGI [15]: 35 µM
- GI50 [16]: 3.92 µM
- TGI [16]: 20.1 µM
- GI50 [17]: 3.36 µM
- TGI [17]: 20.5 µM
- GI50 [18]: 14.4 µM
- TGI [18]: 30 µM
- GI50 [19]: 7.73 µM
- TGI [19]: 22.9 µM
- GI50 [20]: 18.7 µM
- TGI [20]: > 100 µM
- GI50 [21]: 14.2 µM
- TGI [21]: 30 µM
- GI50 [22]: 11.9 µM
- TGI [22]: 24.2 µM
- GI50 [23]: 14.6 µM
- TGI [23]: 45.7 µM
- GI50 [24]: 4.17 µM
- TGI [24]: 21.5 µM
- GI50 [25]: 4.56 µM
- TGI [25]: 24.6 µM
- GI50 [26]: 12.3 µM
- TGI [26]: 27 µM
- GI50 [27]: 10.8 µM
- TGI [27]: 27.4 µM
- GI50 [28]: 2.14 µM
- TGI [28]: 8.25 µM
- GI50 [29]: 5.53 µM
- TGI [29]: 74 µM
- GI50 [30]: 14 µM
- TGI [30]: 37.1 µM
- GI50 [31]: 12.7 µM
- TGI [31]: 28.1 µM
- GI50 [32]: 25.6 µM
- TGI [32]: 94.3 µM
- GI50 [33]: 4.21 µM
- TGI [33]: 18.9 µM
- GI50 [34]: > 100 µM
- TGI [34]: > 100 µM
- GI50 [35]: 5.93 µM
- TGI [35]: 21.6 µM
- GI50 [36]: 12.2 µM
- TGI [36]: 50.2 µM
- GI50 [37]: 12.3 µM
- TGI [37]: 32.9 µM
- GI50 [38]: 19.1 µM
- TGI [38]: 79 µM
- GI50 [39]: 14.6 µM
- TGI [39]: 38.3 µM
- GI50 [40]: 15.1 µM
- TGI [40]: 38 µM
- GI50 [41]: 10.8 µM
- TGI [41]: 26.6 µM
- GI50 [42]: 10.5 µM
- TGI [42]: 36.7 µM
- GI50 [43]: 16.4 µM
- TGI [43]: 39.4 µM
- GI50 [44]: 11.9 µM
- TGI [44]: 27.6 µM
- GI50 [45]: 5.75 µM
- TGI [45]: 19.3 µM
- GI50 [46]: 11 µM
- TGI [46]: 38.3 µM
- GI50 [47]: 12.9 µM
- TGI [47]: 25.6 µM
- GI50 [48]: 15.5 µM
- TGI [48]: 34.9 µM
- GI50 [49]: 12.4 µM
- TGI [49]: 39.1 µM
- GI50 [50]: 9.74 µM
- TGI [50]: 26.2 µM
- GI50 [51]: 6.7 µM
- TGI [51]: 32.8 µM
- GI50 [52]: 8.84 µM
- TGI [52]: 40.3 µM
- GI50 [53]: 17.1 µM
- TGI [53]: 41.6 µM
- GI50 [54]: 2.85 µM
- TGI [54]: 12.7 µM
- GI50 [55]: 10.7 µM
- TGI [55]: 29.9 µM
- GI50 [56]: 7.54 µM
- TGI [56]: 41 µM
- GI50 [57]: 13.8 µM
- TGI [57]: 51.6 µM
- GI50 [58]: 7.19 µM
- TGI [58]: 20.4 µM
- GI50 [59]: 12.1 µM
- TGI [59]: 36.5 µM

SMILES: Cc1ccc(-c2cc(C(=O)N=Nc3c(O)[nH]c4ccccc34)c3ccccc3n2)cc1
- GI50 [1]: 2.87 µM
- TGI [1]: 9.8 µM
- GI50 [2]: 19.3 µM
- TGI [2]: 39.8 µM
- GI50 [3]: 3.99 µM
- TGI [3]: 22 µM
- GI50 [4]: 10.3 µM
- TGI [4]: 22.2 µM
- GI50 [5]: 3.09 µM
- TGI [5]: 18 µM
- GI50 [6]: 4.56 µM
- TGI [6]: 21.5 µM
- GI50 [7]: 4.73 µM
- TGI [7]: > 100 µM
- GI50 [8]: 15.4 µM
- TGI [8]: 37.9 µM
- GI50 [9]: 5.48 µM
- TGI [9]: 37.6 µM
- GI50 [10]: 6.08 µM
- TGI [10]: 30.4 µM
- GI50 [11]: 3.84 µM
- TGI [11]: 15.3 µM
- GI50 [12]: 1.97 µM
- TGI [12]: 4.46 µM
- GI50 [13]: 3.87 µM
- TGI [13]: 17.9 µM
- GI50 [14]: 6.54 µM
- TGI [14]: 43.9 µM
- GI50 [15]: 13.5 µM
- TGI [15]: 29.1 µM
- GI50 [16]: 11.2 µM
- TGI [16]: 36.4 µM
- GI50 [17]: 4.84 µM
- TGI [17]: 88.9 µM
- GI50 [18]: 7.14 µM
- TGI [18]: 25.8 µM
- GI50 [19]: 5.89 µM
- TGI [19]: 23.1 µM
- GI50 [20]: 3.19 µM
- TGI [20]: > 100 µM
- GI50 [21]: 5.84 µM
- TGI [21]: 73.4 µM
- GI50 [22]: 3.63 µM
- TGI [22]: 15.8 µM
- GI50 [23]: 7.76 µM
- TGI [23]: 27.8 µM
- GI50 [24]: 6.38 µM
- TGI [24]: 21.1 µM
- GI50 [25]: 4.39 µM
- TGI [25]: 33.4 µM
- GI50 [26]: 2.39 µM
- TGI [26]: 6.41 µM
- GI50 [27]: 3 µM
- TGI [27]: 11.5 µM
- GI50 [28]: 3.41 µM
- TGI [28]: 15.4 µM
- GI50 [29]: 4.23 µM
- TGI [29]: 38.5 µM
- GI50 [30]: 10.6 µM
- TGI [30]: 28.6 µM
- GI50 [31]: 4.67 µM
- TGI [31]: 26.1 µM
- GI50 [32]: 2.87 µM
- TGI [32]: 8.25 µM
- GI50 [33]: 9.85 µM
- TGI [33]: 25.6 µM
- GI50 [34]: 2.24 µM
- TGI [34]: 6.11 µM
- GI50 [35]: 5.2 µM
- TGI [35]: 25 µM
- GI50 [36]: 3.43 µM
- TGI [36]: 26.6 µM
- GI50 [37]: 8.67 µM
- TGI [37]: 26.7 µM
- GI50 [38]: 2.84 µM
- TGI [38]: 9.15 µM
- GI50 [39]: 17.2 µM
- TGI [39]: > 100 µM
- GI50 [40]: 5.34 µM
- TGI [40]: > 100 µM
- GI50 [41]: 1.88 µM
- TGI [41]: 6.11 µM
- GI50 [42]: 12.8 µM
- TGI [42]: > 100 µM
- GI50 [43]: 13.3 µM
- TGI [43]: 28.5 µM
- GI50 [44]: 3.27 µM
- TGI [44]: 11.3 µM
- GI50 [45]: 23.9 µM
- TGI [45]: 60.4 µM
- GI50 [46]: 11.9 µM
- TGI [46]: 26.6 µM
- GI50 [47]: 5.66 µM
- TGI [47]: 20 µM
- GI50 [48]: 18.1 µM
- TGI [48]: 36.4 µM
- GI50 [49]: 3.15 µM
- TGI [49]: 14.5 µM
- GI50 [50]: 10.6 µM
- TGI [50]: 48.5 µM
- GI50 [51]: 2.54 µM
- TGI [51]: 17.3 µM
- GI50 [52]: 2.38 µM
- TGI [52]: > 100 µM
- GI50 [53]: 6.07 µM
- TGI [53]: 34 µM
- GI50 [54]: 5.38 µM
- TGI [54]: 47.3 µM
- GI50 [55]: 20.6 µM
- TGI [55]: 40.9 µM
- GI50 [56]: 3.02 µM
- TGI [56]: 10.7 µM
- GI50 [57]: 14.3 µM
- TGI [57]: 32.2 µM
- GI50 [58]: 12.7 µM
- TGI [58]: 32.1 µM
- GI50 [59]: 10.7 µM
- TGI [59]: 22.6 µM
